Results from patent US20060084135A1, “Compositions for manipulating the lifespan and stress response of cells and organisms” (priority 2003, published 2006).
Structures can show the parent of a compound that is named as a salt. Where two headings read alike, the source gives them in different places. One block for each compound: values may come before it.

Target: T1, recombinant human SIRT1 (Homo sapiens, UniProt Q96EB6)
T1 sequence (Q96EB6 1-747): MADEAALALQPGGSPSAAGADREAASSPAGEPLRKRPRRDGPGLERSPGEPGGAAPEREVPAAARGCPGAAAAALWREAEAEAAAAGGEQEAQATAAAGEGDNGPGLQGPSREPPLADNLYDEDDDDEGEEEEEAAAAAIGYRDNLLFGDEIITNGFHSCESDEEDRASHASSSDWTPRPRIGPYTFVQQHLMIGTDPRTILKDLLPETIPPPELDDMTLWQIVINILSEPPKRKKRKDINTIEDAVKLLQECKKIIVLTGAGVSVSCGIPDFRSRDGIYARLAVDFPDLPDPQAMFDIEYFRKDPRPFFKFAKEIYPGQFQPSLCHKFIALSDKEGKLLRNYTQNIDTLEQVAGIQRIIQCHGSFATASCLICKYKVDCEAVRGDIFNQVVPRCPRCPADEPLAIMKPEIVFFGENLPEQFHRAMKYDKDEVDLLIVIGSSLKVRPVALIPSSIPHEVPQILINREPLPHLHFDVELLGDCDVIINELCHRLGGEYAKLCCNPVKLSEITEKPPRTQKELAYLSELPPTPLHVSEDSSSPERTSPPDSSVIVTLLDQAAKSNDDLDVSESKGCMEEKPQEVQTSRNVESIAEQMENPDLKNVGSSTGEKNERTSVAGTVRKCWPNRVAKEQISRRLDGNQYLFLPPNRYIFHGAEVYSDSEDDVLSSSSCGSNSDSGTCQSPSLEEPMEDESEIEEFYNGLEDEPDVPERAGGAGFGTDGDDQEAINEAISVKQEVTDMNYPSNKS
Assay: SIRT1 fluorescent deacetylation assay (p53-382 acetylated peptide substrate)
Assay type: biochemical

[1] = Supplementary Table 6, free radical protective compounds, 100 μM, 25 μM NAD+, 25 μM p53-382 acetylated peptide
[2] = Supplementary Table 2, flavones part I, 100 μM, 25 μM NAD+, 25 μM p53-382 acetylated peptide
[3] = Table 10, resveratrol analogs, 100 μM, 25 μM NAD+, 25 μM p53-382 acetylated peptide
[4] = Supplementary Table 3, flavones part II, 100 μM, 25 μM NAD+, 25 μM p53-382 acetylated peptide
[5] = Table 11, resveratrol analogs, 100 μM, 25 μM NAD+, 25 μM p53-382 acetylated peptide
[6] = Supplementary Table 8, compound at 10 μM, 25 μM NAD+, 25 μM p53-382 acetylated peptide
[7] = Supplementary Table 4, isoflavones, flavanones, anthocyanidins, 100 μM, 25 μM NAD+, 25 μM p53-382 acetylated peptide
[8] = Table 13, resveratrol analogs, 100 μM, 25 μM NAD+, 25 μM p53-382 acetylated peptide
[9] = Supplementary Table 1, stilbenes and chalcones, 100 μM, 25 μM NAD+, 25 μM p53-382 acetylated peptide

Compound: CC(C)c1cccc(=O)c(O)c1 [Hinokitiol, 2-hydroxy-4-isopropyl-2,4,6-cycloheptatrien-1-one]
- Ratio to Control Rate Mean ± SE [1]: 2.48 ± 0.15

Compound: O=C(/C=C/c1ccc(O)c(O)c1)Oc1ccccc1 [Caffeic Acid Phenyl Ester]
- Ratio to Control Rate Mean ± SE [1]: 1.80 ± 0.16

Compound: CSc1ccc(/C=C/c2cc(O)cc(O)c2)cc1 [BML-230, 3,5-Dihydroxy-4′-thiomethyl-trans-stilbene]
- Ratio to Control Rate Mean ± SE [3]: 6.84 ± 1.26

Compound: O=c1c(O)c(-c2ccc(O)cc2O)oc2cc(O)cc(O)c12 [Morin, 3,5,7,2′,4′-Pentahydroxyflavone]
- Ratio to Control Rate Mean ± SE [4]: 1.461 ± 0.071

Compound: O=C(Nc1cccc(C(=O)Nc2ccc(S(=O)(=O)O)c3cc(S(=O)(=O)O)cc(S(=O)(=O)O)c23)c1)Nc1cccc(C(=O)Nc2ccc(S(=O)(=O)O)c3cc(S(=O)(=O)O)cc(S(=O)(=O)O)c23)c1 [NF023, reference compound]
- Ratio to Control Rate Mean ± SE (Supplementary Table 7, miscellaneous compounds, 100 μM, 25 μM NAD+, 25 μM p53-382 acetylated peptide): −0.0016

Compound: Oc1cc(O)c2cc(O)c(-c3ccc(O)c(O)c3)[o+]c2c1.[Cl-] [Cyanidin chloride, 3,5,7,3′,4′-Pentahydroxyflavylium chloride]
- Ratio to Control Rate Mean ± SE [7]: 0.451 ± 0.015

Compound: O=[N+]([O-])c1ccc(/C=C/c2cc(O)cc(O)c2)cc1 [BML-229, 3,5-Dihydroxy-4′-nitro-trans-stilbene]
- Ratio to Control Rate Mean ± SE [3]: 6.78 ± 0.22

Compound: O=c1c(O)c(-c2cc(O)c(O)c(O)c2)oc2cc(O)ccc12 [3,7,3′,4′,5′-Pentahydroxyflavone]
- Ratio to Control Rate Mean ± SE [4]: 0.826 ± 0.074

Compound: O=C(O[C@@H]1Cc2c(O)cc(O)cc2O[C@@H]1c1cc(O)c(O)c(O)c1)c1cc(O)c(O)c(O)c1 [(−)-Epigallocatechin Gallate]
- Ratio to Control Rate Mean ± SE (Supplementary Table 5, catechins, 100 μM, 25 μM NAD+, 25 μM p53-382 acetylated peptide): 0.32 ± 0.12

Compound: CC(Cc1ccc(O)c(O)c1)C(C)Cc1ccc(O)c(O)c1 (centres unmarked) [NDGA]
- Ratio to Control Rate Mean ± SE (Supplementary Table 8, compound at 100 μM, 25 μM NAD+, 25 μM p53-382 acetylated peptide): 1.738 ± 0.088

Compound: CCCCCCCCCCCCC/C=C/[C@@H](O)[C@@H](N)CO [Sphingosine]
- Ratio to Control Rate Mean ± SE (Supplementary Table 8, compound concentration not given, 25 μM NAD+, 25 μM p53-382 acetylated peptide): 0.069 ± 0.028

Compound: COc1ccc(/C=C/c2ccccc2)cc1 [4-Methoxy-trans-stilbene]
- Ratio to Control Rate Mean ± SE [8]: 0.840 ± 0.089

Compound: Camptothecin [reference compound]
- Ratio to Control Rate Mean ± SE [6]: 2.92 ± 0.41

Compound: Nc1c(Br)cc(Br)cc1CN[C@H]1CC[C@H](O)CC1 [Ambroxol, trans-4-(2-Amino-3,5-dibromobenzylamino)cyclohexane.HCl, reference compound]
- Ratio to Control Rate Mean ± SE [1]: 1.075 ± 0.0026

Compound: Oc1ccc(/C=C/c2ccccc2)cc1 [4-Hydroxy-trans-stilbene]
- Ratio to Control Rate Mean ± SE [8]: 0.943 ± 0.039

Compound: O=c1c(O)c(-c2ccc(O)c(O)c2)oc2c(O)c(O)cc(O)c12 [Gossypetin, 3,5,7,8,3′,4′-Hexahydroxyflavone]
- Ratio to Control Rate Mean ± SE [4]: 0.723 ± 0.062

Compound: C[N+](C)(C)[C@@H](Cc1c[nH]c(=S)[nH]1)C(=O)[O-] [L-(+)-Ergothioneine, (S)-a-Carboxy-2,3-dihydro-N,N,N-trimethyl-2-thioxo-1H-imidazole-4-ethanaminium inner salt]
- Ratio to Control Rate Mean ± SE [1]: 2.06 ± 0.48

Compound: Oc1ccc(/C=C/c2ccccc2)cc1O [3,4-Dihydroxy-trans-stilbene]
- Ratio to Control Rate Mean ± SE (Table 12, resveratrol analogs, 100 μM, 25 μM NAD+, 25 μM p53-382 acetylated peptide): 1.64 ± 0.10

Compound: Oc1cccc(/C=C/c2ccccc2)c1 [3-Hydroxystilbene]
- Ratio to Control Rate Mean ± SE [5]: 2.357 ± 0.074

Compound: Cc1ccc(C(=O)Nc2ccc(S(=O)(=O)O)c3cc(S(=O)(=O)O)cc(S(=O)(=O)O)c23)cc1NC(=O)c1cccc(NC(=O)Nc2cccc(C(=O)Nc3cc(C(=O)Nc4ccc(S(=O)(=O)O)c5cc(S(=O)(=O)O)cc(S(=O)(=O)O)c45)ccc3C)c2)c1 [Suramin, reference compound]
- Ratio to Control Rate Mean ± SE: −0.0002

Compound: O=C(/C=C/c1ccc(O)c(O)c1)c1c(O)cc(O)cc1O [3,4,2′,4′,6′-Pentahydroxychalcone]
- Ratio to Control Rate Mean ± SE [9]: 2.80 ± 0.32

Compound: O=c1c(O)c(-c2cc(O)c(O)c(O)c2)oc2cc(O)cc(O)c12 [Myricetin, 3,5,7,3′,4′,5′-Hexahydroxyflavone]
- Ratio to Control Rate Mean ± SE [4]: 0.898 ± 0.070

Compound: Oc1cc(O)c2cc(O)c(-c3cc(O)c(O)c(O)c3)[o+]c2c1.[Cl-] [Delphinidin chloride, 3,5,7,3′,4′,5′-Hexahydroxyflavylium chloride]
- Ratio to Control Rate Mean ± SE [7]: 0.4473 ± 0.0071

Compound: CCc1ccc(/C=C/c2cc(O)cc(O)c2)cc1 [BML-225, 3,5-Dihydroxy-4′-ethyl-trans-stilbene]
- Ratio to Control Rate Mean ± SE (Table 9, resveratrol analogs, 100 μM, 25 μM NAD+, 25 μM p53-382 acetylated peptide): 9.373 ± 0.014

Compound: COc1ccc(/C=C/c2cc(O)cc(O[C@@H]3O[C@H](CO)[C@@H](O)[C@H](O)[C@H]3O)c2)cc1 [Deoxyrhapontin, 3,5-Dihydroxy-4′-methoxystilbene 3-O-β-D-glucoside]
- Ratio to Control Rate Mean ± SE [9]: 1.94 ± 0.21

Compound: O=c1ccc2cc(O)c(O)cc2o1 [Esculetin]
- Ratio to Control Rate Mean ± SE [6]: 1.737 ± 0.082

Compound: Cc1c(C)c2c(c(C)c1O)CCC(C)(CN1CCN(c3cc(N4CCCC4)nc(N4CCCC4)n3)CC1)O2.Cl.Cl (single isomer, unassigned; (-)) [Compound U-83836E, (−)-2-((4-(2,6-di-1-Pyrrolidinyl-4-pyrimidinyl)-1-piperazinyl)methyl)-3,4-dihydro-2,5,7,8-tetramethyl-2H-1-benzopyran-6-ol-2HCl, reference compound]
- Ratio to Control Rate Mean ± SE [1]: 1.030 ± 0.055

Compound: O=C1c2c(O)cc(O)cc2OC(c2ccc(O)c(O)c2)C1O (centres unmarked) [3,5,7,3′,4′-Pentahydroxyflavanone]
- Ratio to Control Rate Mean ± SE [7]: 1.97 ± 0.22

Compound: C(=C\c1ccccc1)/c1ccccc1 [trans-Stilbene]
- Ratio to Control Rate Mean ± SE [9]: 1.48 ± 0.15

Other lines, results leading:

- Ratio to Control Rate Mean ± SE [2]: 5.45 ± 0.57
Compound: O=c1c(O)c(-c2ccc(O)c(O)c2)oc2ccc(O)cc12 [3,6,3′,4′-Tetrahydroxyflavone]

- Ratio to Control Rate Mean ± SE [5]: 3.05 ± 0.37
Compound: Oc1cc(O)cc(/C=C/c2ccc3ccccc3c2)c1 [BML-218, (E)-1-(3,5-Dihydroxyphenyl)-2-(2-napthyl) ethene]

- Ratio to Control Rate Mean ± SE [6]: 2.30 ± 0.31
Compound: O=c1oc2cc(O)ccc2c2oc3cc(O)ccc3c12 [Coumestrol]

- Ratio to Control Rate Mean ± SE [4]: 1.73 ± 0.12
Compound: O=c1cc(-c2ccc(O)cc2)oc2ccccc12 [4′-Hydroxyflavone]

- Ratio to Control Rate Mean ± SE [2]: 2.77 ± 0.40
Compound: O=c1cc(-c2ccc(O)cc2)oc2cc(O)cc(O)c12 [Apigenin, 5,7,4′-Trihydroxyflavone]

- Ratio to Control Rate Mean ± SE [4]: 1.91
Compound: O=c1c(O)c(-c2ccc(O)cc2)oc2c(O)c(O)ccc12 [7,8,3,4′-Tetrahydroxyflavone]

- Ratio to Control Rate Mean ± SE [4]: 1.22 ± 0.19
Compound: O=c1cc(-c2ccccc2)oc2cccc(O)c12 [5-Hydroxyflavone]

- Ratio to Control Rate Mean ± SE [2]: 3.06 ± 0.29
Compound: O=c1cc(-c2ccc(O)cc2)oc2cc(O)c(O)c(O)c12 [6-Hydroxyapigenin, 5,6,7,4′-Tetrahydroxyflavone]

- Ratio to Control Rate Mean ± SE [2]: 3.55 ± 0.56
Compound: O=c1c(O)c(-c2ccc(O)cc2)oc2cc(O)cc(O)c12 [Kaempferol, 3,5,7,4′-Tetrahydroxyflavone]

- Ratio to Control Rate Mean ± SE [7]: 1.92 ± 0.24
Compound: O=C1CC(c2ccccc2)Oc2ccccc21 (centres unmarked) [Flavanone]

- Ratio to Control Rate Mean ± SE [2]: 6.05 ± 0.98
Compound: O=c1cc(-c2cc(O)c(O)c(O)c2)oc2cc(O)cc(O)c12 [5,7,3′4′,5′-Pentahydroxyflavone]

- Ratio to Control Rate Mean ± SE [2]: 3.62 ± 0.56
Compound: O=c1cc(-c2cc(O)c(O)c(O)c2)oc2cc(O)ccc12 [7,3′,4′,5′-Tetrahydroxyflavone]

- Ratio to Control Rate Mean ± SE [2]: 2.10 ± 0.22
Compound: O=c1c(O)c(-c2ccc(O)cc2O)oc2ccc(O)cc12 [3,6,2′,4′-Tetrahydroxyflavone]

- Ratio to Control Rate Mean ± SE [2]: 5.66 ± 0.80
Compound: O=c1cc(-c2ccc(O)c(O)c2)oc2cc(O)cc(O)c12 [Luteolin, 5,7,3′,4′-Tetrahydroxyflavone]

- Ratio to Control Rate Mean ± SE [7]: 2.10 ± 0.23
Compound: O=C1CC(c2ccc(O)cc2)Oc2cc(O)cc(O)c21 (centres unmarked) [Naringenin, 5,7,4′-Trihydroxyflavanone]

- Ratio to Control Rate Mean ± SE [7]: 1.109 ± 0.026
- SIRT1 stimulating activity (in words) (polyphenol screen): absence of activity
Compound: O=c1c(-c2ccc(O)cc2)coc2cc(O)cc(O)c12 [5,7,4′-Trihydroxyisoflavone]

- Ratio to Control Rate Mean ± SE [4]: 1.51 ± 0.18
Compound: O=c1cc(-c2ccccc2)oc2cc(O)cc(O)c12 [5,7-Dihydroxyflavone]
